The values below come from US7851653B2, “Method of creating a solvent-free polymeric silicon-containing quaternary ammonium antimicrobial agent having superior sustained antimicrobial properties” (priority 2005, dated 2010).

Data set [1] deals with E. coli. Description: ASTM E2149-01 on treated cotton swatches before and after accelerated laundering AATCC 61-1996. The format is cell-based. Here is the method:
(§1) Antimicrobial testing of the cast PVC films of Example 4 was carried out essentially as described in the ASTM designation E 2149-01 entitled, “Standard test Method for Determining the Antimicrobial Activity of Immobilized Antimicrobial Agents under Dynamic Contact Conditions.” This test is designed to evaluate the antimicrobial properties of materials, which contain active agents that are non-leaching. The method is described briefly below.
E. coli was grown overnight in rich media in an incubator-shaker at 37° C. while shaking at 300 rpm. After 18 hours of incubation, the bacteria were removed from the incubator and the optical density at 660 nm was measured. The culture was diluted until the optical density corresponds to a bacterial concentration of between 1×10^8 and 3×10^8 Colony Forming Units (CFU) per milliliter. The bacteria were further diluted in phosphate buffer (0.3 mM KPO4 at pH 7.2) such that the working concentration was 1×10^6 to 3×10^6 CFU/mL. Test specimens were added to sterile 15 mL test tubes followed by the addition of 3 mL of the bacterial solution. An aliquot was immediately removed from the flask, serially diluted, and used to inoculate Petri plates containing nutrient agar. The plates were incubated overnight and the concentration of bacteria (CFU/mL) was thus determined. This represents the Time 0 (T0) control. The tube containing the sample was placed in a shaking incubator at 37° C. and 300 rpm for one hour, at which time another aliquot was taken and tested as above. This is the treated sample (TF). All tests were controlled by the inclusion of a tube that contained an untreated sample and a flask with no sample but with bacteria. […] Log kill is a standard method to establish the ability of antimicrobial agents to destroy microorganisms. A log kill of 5.0 means that 100,000 microorganisms were destroyed on contact with the treated surface. A log kill of 6.0 establishes that 1,000,000 microorganisms were destroyed on contact with the treated surface. A log kill in excess of 5.0 is typically interpreted as an exceptionally active antimicrobial agent.
Unbleached cotton fabric was treated with various concentration levels of both monomeric 3-(trimethoxysilyl) propyldimethyloctadecyl ammonium chloride and the homopolymer of 3-(trimethoxysilyl) propyldimethyloctadecyl ammonium chloride as prepared in Example 2. In all cases 2 inch (5.1 cm) by 2 inch (5.1 cm) swatches of fabric were treated by immersing them in an aqueous solution containing the respective concentration of monomeric or polymeric 3-(trimethoxysilyl) propyldimethyloctadecyl ammonium chloride for a minimum of ten minutes. The swatches were subsequently removed from the aqueous solution and air-dried overnight. The swatches were analyzed for antimicrobial activity using ASTM E2149-01 as described in Example 5 followed by an accelerated laundering test according to AATCC 61-1996, which simulates multiple laundering effects. The swatches were again analyzed for antimicrobial activity according to ASTM E2149-01 to determine the effect of laundering on the antimicrobial activity. Antimicrobial activity is reported as percent reduction in E. coli concentration.

Data set [2] relates to E. coli. The experiment in a line: ASTM E 2149-01 antimicrobial activity of immobilized agents under dynamic contact conditions (dynamic shake flask test). The format is cell-based. Here is the method:
as §1
E. coli was grown overnight in rich media in an incubator-shaker at 37° C. while shaking at 300 rpm. After 18 hours of incubation, the bacteria were removed from the incubator and the optical density at 660 nm was measured. The culture was diluted until the optical density corresponds to a bacterial concentration of between 1×10^8 and 3×10^8 Colony Forming Units (CFU) per milliliter. The bacteria were further diluted in phosphate buffer (0.3 mM KPO4 at pH 7.2) such that the working concentration was 1×10^6 to 3×10^6 CFU/mL. Test specimens were added to sterile 15 mL test tubes followed by the addition of 3 mL of the bacterial solution. An aliquot was immediately removed from the flask, serially diluted, and used to inoculate Petri plates containing nutrient agar. The plates were incubated overnight and the concentration of bacteria (CFU/mL) was thus determined. This represents the Time 0 (T0) control. […]

Data set [3] can be described thus: carbon tetrachloride (CTC) activity of activated carbon, ASTM Method D3467. It counts as physicochemical. Here is the method: Determining whether the impregnation of the carbon with antimicrobial agents had any adverse effect on the adsorption properties of the carbon was accomplished by testing the carbon tetrachloride (CTC) activity of the carbon prior to impregnation and following impregnation with the monomer and polymer forms of the antimicrobial agent. The CTC activity testing was performed by a vendor in accordance with ASTM Method […].

In data set [4] the test system is E. coli. The experiment in a line: minimum inhibitory concentration (MIC) using E. coli. The settings on record: Escherichia coli. The format is cell-based. Here is the method:
Two volumes of 0.01N NH4OH in water were added slowly to one volume of a 42% by weight solution of 3-(trimethoxysilyl) propyldimethyloctadecyl ammonium chloride in methanol while stirring at room temperature. After ten minutes an additional two volumes of 0.01N NH4OH were added, stirring continued for an additional ten minutes. An additional five volumes of 0.1N NH4OH were added and stirred for an additional ten minutes. The methanol and NH4OH were removed by evaporation and the resulting polymer concentrated to 5% (wt/wt) in a rotary evaporator. The solution was dried to a methanol-free dry powder. Infrared and NMR spectroscopy confirmed the resultant powder was a homopolymer of (trimethoxysilyl) propyldimethyloctadecyl ammonium chloride.

`CCCCCCCCCCCCCCCCCC[N+](C)(C)CCC[Si](OC)(OC)OC.[Cl-]` [Monomer, 3-(trimethoxysilyl) propyldimethyloctadecyl ammonium chloride]: the “% Reduction, laundered” value in the data set on E. coli [1] (0.010 % active in solution) worked out at 0%; in the data set on E. coli [1] (0.025 % active in solution), 0%; with E. coli [1] (0.050 % active in solution), 98.86%; in the data set on E. coli [1] (0.075 % active in solution), 99.19%; in the data set with E. coli [1] (0.100 % active in solution), 99.91%; in the data set on E. coli [1] (0.25 % active in solution), 99.99%. In addition, the “% Reduction, unlaundered” value amounted to 22% in the data set with E. coli [1] (0.010 % active in solution); 38% in the data set on E. coli [1] (0.025 % active in solution); 95% in the data set on E. coli [1] (0.050 % active in solution); 99.59% with E. coli [1] (0.075 % active in solution); 99.99% in the data set with E. coli [1] (0.100 % active in solution); 99.99% in the data set on E. coli [1] (0.25 % active in solution). For the same compound, the “Log Kill” value is on record as “None” in the data set with E. coli [2] (coconut shell activated carbon treated at 0.1 wt. % agent) and 6.11 in the data set with E. coli [2] (coconut shell activated carbon treated at 0.25 wt. % agent). The “(Wt.) % CTC” value in data set [3] (activated carbon treated at 0.1 wt. % agent) was 77.6 (Wt.) %; in data set [3] (activated carbon treated at 0.25 wt. % agent), 73.4 (Wt.) %; in data set [3] (activated carbon treated at 0.5 wt. % agent), 75.4 (Wt.) %. For the same compound, the MIC against E. coli [4] turned out to be 0.98 µg/mL.

As a reminder, the MIC is the lowest concentration that inhibits growth of the organism. The low end stands for a more susceptible organism, the high end for a less susceptible organism.
